# Data published in patent US8685963B2, “Compounds that inhibit NFκB and BACE1 activity” (The Trustees of Columbia University in the city of New York, priority 2008, dated 2014).
# Legend:
# NFkB [1] = experiment: TNFα-induced NFkB nuclear translocation high-content screen in HUVEC; type: cell-based, human
# Description: FIG. 5A-B depicts (A) The two-color dual luciferase based assay. IκBα is fused to a luciferase emitting greenlight (CBG68), while a red light-emitting luciferase (CBR) is present in its native state. Both luciferases are regulated by binding of the tet repressor to the tet operator (TO) binding site (TO), allowing simultaneous induction of the luciferases by the CMV promoter upon addition of doxycycline and test compounds. The CBR protein serves to normalize for non-specific effects, while the levels of the IκBα-CBG68 protein increase uniquely with inhibition of the NFκB pathway leading to IκBα degradation. (B) The nuclear translocation assay. TNFα stimulation results in nuclear translocation of NFκB, which is detected by immunofluorescence using an anti-p65 antibody and a secondary antibody labeled with an Alexa 647 fluorophore (A647). […] In the assay, nuclear translocation of the endogenous p65 RelA subunit of NFkB, at 30 min post-stimulation, was monitored using fluorescent antibody detection and an automated imaging platform. (Mayer et al., 2006, Methods Enzyme 414:266) NFkB inhibitors in this assay, such as IkBα stabilizers, were detected as compounds that interfered with p65 translocation to the nucleus.
# IkBα = experiment: dual luciferase IkBα stabilization screen in OCI-Ly3; type: cell-based; conditions: OCI-Ly3 cells
# Description: FIG. 5A-B depicts (A) The two-color dual luciferase based assay. IκBα is fused to a luciferase emitting greenlight (CBG68), while a red light-emitting luciferase (CBR) is present in its native state. Both luciferases are regulated by binding of the tet repressor to the tet operator (TO) binding site (TO), allowing simultaneous induction of the luciferases by the CMV promoter upon addition of doxycycline and test compounds. The CBR protein serves to normalize for non-specific effects, while the levels of the IκBα-CBG68 protein increase uniquely with inhibition of the NFκB pathway leading to IκBα degradation. (B) The nuclear translocation assay. TNFα stimulation results in nuclear translocation of NFκB, which is detected by immunofluorescence using an anti-p65 antibody and a secondary antibody labeled with an Alexa 647 fluorophore (A647). […]
# To identify modulators of IkBα stability in ABC-DLBCL lines, such as small molecules inhibiting IKK or proteasome activity, changes in the level of an exogenous IkBα-luciferase fusion reporter expressed by an NFkB-insensitive promoter were measured. […] Upon doxycycline induction of both luciferase reporters, compounds that increased green luminescence with minimal effects on the red luminescence signal were scored as IkBα stabilizers. […]
# NFkB [2] = experiment: NFkB-dependent β-lactamase reporter assay (NFkB-bla), TNFα stimulated; type: cell-based
# Description: By way of example, and not of limitation, such an assay may comprise contacting a cell expressing the NFκβ-dependent reporter construct, and monitoring the level of β-lactamase expression, wherein a decrease in expression compared to a cell not contacted with the compound indicates a reduction in NFκB activity.
# The above-described assays were validated using known inhibitors of the NFkB pathway (FIG. 6). The proteasome inhibitor MG-132 (1) 16 served as a positive control for the IkBα stabilization assay. The translocation assay used BAY 11-7082 (2), an agent that inhibits the TNFα-induced phosphorylation of IkBα. […] Additionally, a substituted 2-(thiophen-2-yl)quinazoline 3 which acts as an inhibitor of NFkB and Aβ1 mediated transcriptional activation (Palanki et al., 2003, Bioorg. Med. Chem. Lett. 13:4077) was used as a positive control in a secondary assay that used TNFα to stimulate NFkB-dependent expression of a β-lactamase reporter (NFkB-bla in FIG. 7). This compound also served as a negative control for the dual luciferase IkBa stabilization assay.
structure (smiles),measurement,setting,value
"O=S(=O)(Nc1cccc2cccnc12)c1ccccc1 [Compound 4, N-(quinolin-8-yl)benzenesulfonamide]",identified in NFkB translocation screen,NFkB [1],identified
same,identified in IkBα stabilization screen,IkBα,identified
same,ability to inhibit the NFkB pathway (β-lactamase reporter),NFkB [2],confirmed the ability of these compounds to inhibit the NFkB pathway
